Reference: patent publication US8334239B2, “High affinity VEGF-receptor antagonists” (The Board of Regents of the University of Texas System, priority 2007, dated 2012)
Entries after “also recorded” stand apart in the source; their conditions may differ. Non-standard residues stand in square brackets, D forms with d. Residues, ends and D or L forms follow the SMILES beside them. Gly(N(CH2)2(3-indolyl)) = O=C(O)CNCCc1c[nH]c2ccccc12; NFurfurylGly = O=C(O)CNCc1ccco1; Nleu = CC(C)CNCC(=O)O; Nlys = NCCCCNCC(=O)O

Legend:
VEGFR2 [1] = target: T1, VEGFR2 (Homo sapiens, UniProt P35968); test: VEGF-induced VEGFR2 autophosphorylation in PAE/KDR cells, Western blot; type: cell-based; parameters: allow the library to be screened against the full-length receptor in as natural an environment as possible; host or cells: PAE/KDR (porcine aortic endothelial cells expressing human KDR)
Protocol: Western blots. Experiments were conducted using PAE/KDR cells that were grown on 6-well plates. […] The blots were probed with Phospho-VEGF receptor 2 (Tyr1175) (19A10) rabbit monoclonal or Total VEGFR2 primary antibodies (Cell signaling) and HRP-conjugated secondary antibody (BioRad).
Functional characterization of the VEGFR2-binding peptoids. GU40C and GU40E were then tested for their ability to modulate VEGFR function. Of course, since the screen simply demanded binding of the peptoid to the receptor, it was not a given that this would be the case. […] Western blot analysis using phospho-VEGFR2-specific antibodies was then employed to monitor receptor activation.
To do so, the inventors examined the effect of the peptoid on VEGF-induced VEGFR2 autophosphorylation by Western blotting, as described earlier.
Target sequence in this assay (P35968 20-1356): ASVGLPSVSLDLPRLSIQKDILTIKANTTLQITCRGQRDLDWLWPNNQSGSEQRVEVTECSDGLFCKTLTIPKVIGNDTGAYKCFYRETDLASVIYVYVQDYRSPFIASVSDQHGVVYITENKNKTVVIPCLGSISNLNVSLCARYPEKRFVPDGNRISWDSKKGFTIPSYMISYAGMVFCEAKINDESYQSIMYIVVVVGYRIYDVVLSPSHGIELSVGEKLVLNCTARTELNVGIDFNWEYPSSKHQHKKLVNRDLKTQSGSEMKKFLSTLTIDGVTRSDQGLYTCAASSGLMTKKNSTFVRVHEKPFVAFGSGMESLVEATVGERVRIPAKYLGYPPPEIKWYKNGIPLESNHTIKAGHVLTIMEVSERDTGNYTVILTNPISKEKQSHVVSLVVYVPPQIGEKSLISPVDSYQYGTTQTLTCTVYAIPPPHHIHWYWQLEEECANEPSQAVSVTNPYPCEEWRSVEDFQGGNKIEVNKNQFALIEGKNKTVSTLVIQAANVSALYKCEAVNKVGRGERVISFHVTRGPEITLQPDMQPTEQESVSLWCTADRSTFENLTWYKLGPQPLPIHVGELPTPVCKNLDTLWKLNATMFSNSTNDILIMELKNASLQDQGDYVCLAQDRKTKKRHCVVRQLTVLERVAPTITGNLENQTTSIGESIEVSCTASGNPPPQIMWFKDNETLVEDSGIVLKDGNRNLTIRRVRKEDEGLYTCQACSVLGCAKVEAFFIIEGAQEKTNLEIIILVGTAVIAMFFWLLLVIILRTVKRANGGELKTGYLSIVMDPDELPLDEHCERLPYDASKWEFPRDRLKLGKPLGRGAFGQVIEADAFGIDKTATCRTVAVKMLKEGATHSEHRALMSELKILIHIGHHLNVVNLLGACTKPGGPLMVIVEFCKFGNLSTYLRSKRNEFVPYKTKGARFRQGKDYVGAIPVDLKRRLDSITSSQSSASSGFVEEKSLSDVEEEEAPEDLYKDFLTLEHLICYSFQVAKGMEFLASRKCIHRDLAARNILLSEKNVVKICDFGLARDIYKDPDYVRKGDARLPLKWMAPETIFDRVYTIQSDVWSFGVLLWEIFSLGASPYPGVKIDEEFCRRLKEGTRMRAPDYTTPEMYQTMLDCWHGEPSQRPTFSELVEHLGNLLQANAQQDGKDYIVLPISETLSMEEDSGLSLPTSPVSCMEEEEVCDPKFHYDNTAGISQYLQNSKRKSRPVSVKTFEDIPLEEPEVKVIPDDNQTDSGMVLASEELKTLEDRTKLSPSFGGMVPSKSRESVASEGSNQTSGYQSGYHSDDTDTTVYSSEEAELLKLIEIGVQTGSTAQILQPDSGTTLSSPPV

GST = test: ELISA-like binding assay on immobilized GST
VEGFR2 [2] = target: T1, VEGFR2; test: ELISA-like binding assay, fluoresceinated peptoids on immobilized VEGFR2 extracellular domain; parameters: VEGFR2 extracellular domain (amino acids 1-764 fused to 6× histidine-tagged Fc of human IgG, via the peptide IEGRMD; R&D Systems); linker peptide IEGRMD (internal); Fc of human IgG (C); 6xHis (C); purchased R&D Systems; details: fluoresceinated peptoid
Protocol: ELISA based binding assay. White, clear bottom 96-well plates (Corning Inc.) were coated with of 1 μg/ml recombinant human VEGFR2 protein (R&D Systems) using the sensitizing buffer (0.621 g NaHCO3 & 0.275 g Na2CO3 dissolved on 100 ml of ddH2O, pH=9.5) overnight at 4° C. Washed with 3×200 μl of wash buffer 1×PBS with 0.05% Tween-20 and blocked with Startingblock blocking buffer (Pierce). Added 50 μl of serial dilutions of FITC labeled peptoids dissolved in Startingblock blocking buffer to each well & allowed to react for 1 h at room temperature. Washed with 5×200 μl of wash buffer 1×PBS with 0.05% Tween-20 and remaining fluorescence was measured at 520 nm using the plate reader.
The isolated peptoids are VEGFR2 ligands. Two of the ‘hits’ from this screen, GU40C and GU40E (see FIG. 2) were resynthesized, both as free compounds and with C-terminal Cys (for C-terminal fluorescein tagging via maleimide chemistry), cleaved from the beads and purified to apparent homogeneity by reverse phase HPLC. […] The association of these peptoids with VEGFR2 was evaluated using an ELISA-like assay. A commercially available fusion protein containing the VEGFR2 extracellular domain (amino acids 1-764 fused to 6× histidine-tagged Fc of human IgG, via the peptide IEGRMD; R&D Systems) was plated into 96-well plates and then mixed with various concentrations of […] Fluorescein (FITC)-labeled peptoid. After washing away unbound peptoid, the remaining fluorescence emission signal was measured at 520 nm. In this assay purified VEGFR2 protein was used instead of the whole PAE/KDR cells that over express VEGFR2, in order to confirm these compounds were binding only to the receptor.
Target sequence in this assay (P35968 20-764): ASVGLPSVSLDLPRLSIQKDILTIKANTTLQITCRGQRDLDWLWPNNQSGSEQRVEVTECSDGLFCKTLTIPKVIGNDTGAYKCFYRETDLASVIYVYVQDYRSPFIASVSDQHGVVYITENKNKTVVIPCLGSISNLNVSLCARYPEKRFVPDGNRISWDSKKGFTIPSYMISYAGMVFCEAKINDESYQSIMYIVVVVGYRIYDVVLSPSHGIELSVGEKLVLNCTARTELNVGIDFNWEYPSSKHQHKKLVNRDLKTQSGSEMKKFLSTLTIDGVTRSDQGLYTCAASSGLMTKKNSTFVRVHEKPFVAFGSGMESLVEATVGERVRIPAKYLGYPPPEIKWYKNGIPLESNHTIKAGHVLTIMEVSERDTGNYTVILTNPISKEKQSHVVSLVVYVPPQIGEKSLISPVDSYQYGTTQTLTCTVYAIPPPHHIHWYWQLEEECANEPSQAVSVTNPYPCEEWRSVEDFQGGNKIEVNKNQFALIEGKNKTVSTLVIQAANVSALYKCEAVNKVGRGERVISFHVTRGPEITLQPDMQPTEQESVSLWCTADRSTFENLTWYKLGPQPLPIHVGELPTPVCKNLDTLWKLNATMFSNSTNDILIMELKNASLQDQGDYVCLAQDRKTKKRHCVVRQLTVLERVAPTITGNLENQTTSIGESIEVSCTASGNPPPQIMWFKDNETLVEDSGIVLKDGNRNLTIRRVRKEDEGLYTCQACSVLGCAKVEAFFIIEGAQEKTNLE

CD105 = target: T2, CD105 (Homo sapiens, UniProt P17813); test: ELISA-like binding assay on immobilized CD105; details: same ELISA-like assay
T2 sequence (P17813 26-658): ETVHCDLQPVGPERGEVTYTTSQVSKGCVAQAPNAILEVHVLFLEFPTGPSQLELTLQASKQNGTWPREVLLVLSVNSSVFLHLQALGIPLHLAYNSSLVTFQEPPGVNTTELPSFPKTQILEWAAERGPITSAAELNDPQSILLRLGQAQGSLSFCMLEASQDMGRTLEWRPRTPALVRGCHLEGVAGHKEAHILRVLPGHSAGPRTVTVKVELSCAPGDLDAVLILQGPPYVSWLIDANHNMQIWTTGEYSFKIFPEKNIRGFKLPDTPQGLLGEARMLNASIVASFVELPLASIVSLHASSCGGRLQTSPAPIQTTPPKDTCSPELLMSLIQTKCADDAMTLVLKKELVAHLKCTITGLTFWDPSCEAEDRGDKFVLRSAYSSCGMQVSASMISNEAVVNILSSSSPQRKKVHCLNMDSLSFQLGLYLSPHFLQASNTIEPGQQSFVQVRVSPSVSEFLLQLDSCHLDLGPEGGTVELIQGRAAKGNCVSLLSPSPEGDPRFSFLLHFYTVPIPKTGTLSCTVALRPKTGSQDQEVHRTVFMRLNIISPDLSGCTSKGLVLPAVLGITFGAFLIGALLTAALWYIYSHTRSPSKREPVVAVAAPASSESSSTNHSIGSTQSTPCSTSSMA

CC(C)CN(CC(=O)N(CCCCN)CC(=O)N(CCCCN)CC(N)=O)C(=O)CN(CCCCN)C(=O)CN(CC(C)C)C(=O)CN(CCCCN)C(=O)CN(Cc1ccco1)C(=O)CN(CCCCN)C(=O)CNCCc1c[nH]c2ccccc12 [GU40E, Ntrp-Nlys-Nffa-Nlys-Nleu-Nlys-Nleu-Nlys-Nlys] (H-[Gly(N(CH2)2(3-indolyl))][Nlys][NFurfurylGly][Nlys][Nleu][Nlys][Nleu][Nlys][Nlys]-NH2)
agonist activity on VEGFR2 phosphorylation (VEGFR2 [1]; PAE/KDR cells, Western blot): Neither peptoid at any concentration tested evinced agonist activity; also recorded: None of the peptoids exhibited agonist activity | effect on VEGF-induced VEGFR2 phosphorylation (in words) (VEGFR2 [1]; monomeric peptoids, 500 μM, 1.3 nM VEGF): weak antagonists | binding to GST (GST): did not bind detectably | binding after pre-incubation of immobilized receptor with unlabeled VEGF (VEGFR2 [2]): almost no binding | binding to CD105 (CD105): did not bind detectably
